Data on two compounds can be found in US10328075B2, “Method of treatment and compounds for use therein” (Baker Heart and Diabetes Institute, priority 2015, dated 2019).

In assay [1] the target is T1, hFPR2 (Homo sapiens, UniProt P25090).
T1 construct: expressed in transfected cells
T1 sequence (P25090 1-351): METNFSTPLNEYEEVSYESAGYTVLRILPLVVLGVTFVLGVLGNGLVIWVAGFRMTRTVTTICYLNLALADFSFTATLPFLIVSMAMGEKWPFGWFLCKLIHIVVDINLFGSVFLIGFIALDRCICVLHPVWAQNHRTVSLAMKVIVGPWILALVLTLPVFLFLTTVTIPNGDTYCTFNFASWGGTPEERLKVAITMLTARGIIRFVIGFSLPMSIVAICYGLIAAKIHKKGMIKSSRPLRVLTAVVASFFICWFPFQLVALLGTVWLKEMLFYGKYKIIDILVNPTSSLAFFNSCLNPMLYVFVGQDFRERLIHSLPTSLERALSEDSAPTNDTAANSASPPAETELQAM
The assay can be described thus: Akt (Thr308) phosphorylation in hFPR2-FlpIn-CHO cells. The class given is cell-based. The note with it: for ΔLog(τ/KA), Akt 1/2/3 (Thr308) phosphorylation, hFPR2-Flpln-CHO: normalized transduction coefficient, reference agonist Cmpd43; for Log(τ/KA), Akt 1/2/3 (Thr308) phosphorylation, hFPR2-Flpln-CHO: transduction coefficient. From the text:
(§1) cDNDA construct and generation of stable cell lines: cDNA in pcDNA3.1^+ encoding the human formyl peptide receptors (FPR) subtypes, hFPR1, hFPR2 and hFPR3 was obtained from Invitrogen. The sequences for 3 hFPR receptors were amplified by PCR and cloned into the Gateway entry vector, pDONR202™, using the BP clonase enzyme mix, according to the manufactures' instructions (Invitrogen Inc, Carlsbad, Calif., USA). All hFPR receptors constructs in pDONR201™ were subsequently transfected into the pEF5/FRT/V5/dest vector using the LR clonase enzyme mix (Invitrogen). Receptor constructs (pEF5/FRT/V5/dest) were used to transfect FIp-In CHO cells as described previously (Valant C et al., PNAS, 2014). Cells were selected using 500 μg/mL hydromycin to generate cell lines stably expressing each receptor construct. Cells were maintained and cultured in high glucose DMEM supplemented with 10% FBS, 16 mM HEPES and 500 μg/mL hydromycin at 37° C. under a humidified atmosphere containing 5% CO2.
(§2) In the various assays described below, cells were plated into 96-well transparent cell culture plates at 4×10^4 cells per well, cultured overnight in serum-free media at 37° C. in 5% CO2.
Measurement of Akt1/2/3 phosphorylation and Akt 1: The same lysate was used for measurement of Akt1/2/3 phosphorylation (Ser473) and Akt1 (Thr308). Cells were lysed in SureFire lysis buffer and transferred to 384-well opaque proxiplates. Under low-light conditions, a 1:10:40 (v:v:v) dilution of AlphaScreen acceptor beads:Surefire activation buffer:Surefire reaction buffer was prepared and the plate was incubated in the dark at RT for 2 h. Then, a 1:20 (v:v) dilution of AlphaScreen donor beads/dilution was prepared and incubated in the dark at RT for another 2 h, before the fluorescence signal was measured by used of a Fusion-α plate reader (PerkinElmer Life and Analytical Sciences) with standard AlphaScreen settings. Receptor mediated phosphorylation of Akt1/2/3 (Ser473) and Akt1 (Thr308) were determined using the AlphaScreen™ […] SureFire™ kit, as per as per manufacturer's instructions. Data were normalized to the maximal response elicited by 10% (v:v) FBS at the same time point.
(§3) Data analysis: All data were analysed using GraphPad Prism 6.0 (GraphPad Software, San Deigo, Calif., USA). Where appropriate, concentration-response curves were fitted to derive the maximal agonist effect (Emax), and the ligand potency estimate (pEC50), where Emax is the maximal possible response of the system (not the agonist), basal is the basal level of response in the absence of agonist, and pEC50 is the negative logarithm of the agonist concentration that gives a response halfway between Emax and basal.
(§4) In the present study, FIp-IN CHO cells and Gateway plasmid were obtained from Invitrogen Inc (Carlsbad, Calif., USA). The sequences for all 3 known human FPRs (hFPR1, hFPR2 and hFPR3) were amplified by PCR and cloned into the Gateway entry vector, pDONR202TM, using the BP clonase enzyme mix, according to the manufacturers' instructions. The hFPR pDONR201TM constructs were subsequently transfected into the pEF5/FRT/V5/dest vector using the LR clonase enzyme mix (Invitrogen). Receptor constructs (pEF5/FRT/V5/dest) were used to transfect FIp-IN CHO cells, as described previously (Valant et al. 2014). Cells were selected using 500 μg/mL hydromycin to generate cell lines stably expressing each human receptor construct. Cells were maintained and cultured in high glucose Dulbecco's modified eagle medium (DMEM) supplemented with 10% fetal bovine serum (FBS, from JRH Biosciences, Lenexa, Kans., USA) and 500 μg/mL hydromycin B (Invitrogen Inc) at 37° C. under a humidified atmosphere containing 5% CO2. Cell were plated into 96-well transparent cell culture plates at 4×10^4 cells per well, cultured overnight in serum-free media at 37° C. in 5% CO2.

Assay [2] concerns the target T1, hFPR2. The assay is described as follows: Inhibition of forskolin-stimulated cAMP accumulation in hFPR2-FlpIn-CHO cells. The class given is cell-based. The conditions noted are these: for ΔLog(τ/KA), inhibition of cAMP accumulation, hFPR2-Flpln-CHO: normalized transduction coefficient, reference agonist Cmpd43; for Log(τ/KA), inhibition of cAMP accumulation, hFPR2-Flpln-CHO: transduction coefficient; for Effect on the cAMP response at hFPR2: over the concentration range tested.
Text: as §1, §2
cAMP Accumulation: CHO-hFPR1, -hFPR2 and -hFPR3 stable transfected cells were plated into 96-well plates and cultured overnight at 37° C. in 5% CO2. Cells were washed with PBS, and cultured overnight. […] Cells were lysed in detection buffer (dH2O, 0.3% Tween 20, 5 mM HEPES, 0.1% BSA). Lysates were transferred to a 384-well plate and mixtures of detection buffer/donor bead-conjugated anti-cAMP antibody and detection buffer: biotinylated cAMP: acceptor bead-conjugated streptavidin were added to the lysates according to the PerkinElmer cAMP Alphascreen protocol. Under low-light conditions, a 1:50 (v:v) dilution of AlphaScreen acceptor beads: stimulation buffer was prepared, 1:150 (v:v) dilution of donor beads and 50 nM biotinylated cAMP in detection buffer was prepared in a 384-well opaque optiplates. Plates were incubated in the dark at room temperature overnight before the fluorescence signal was measured by use of a Fusion-α plate reader (PerkinElmer Life and Analytical Sciences). Data were normalized to the response elicited by 10 μM forskolin at the same time point.
as §3, §4
Background: cAMP levels reflect the balance of adenylyl cyclase and phosphodiesterase activity.

The mark [3] stands for this setting: Table 3, percentage of Akt1/2/3 phosphorylation elicited by 10% FBS, read-out: Emax (%), Akt 1 (Thr308) phosphorylation, hFPR2-Flpln-CHO.
Where [4] appears, read: Table 8, percent of response elicited by 10% FBS, read-out: Emax, Akt 1/2/3 (Thr308) phosphorylation, hFPR2-Flpln-CHO.
Where [5] appears, read: Table 4, percentage inhibition of forskolin-stimulated cAMP accumulation, read-out: Emax (%), inhibition to cAMP accumulation, hFPR2-Flpln-CHO.
Setting [6] is: Table 8, percent inhibition of forskolin-induced cAMP accumulation, read-out: Emax, inhibition of cAMP accumulation, hFPR2-Flpln-CHO.

For `CC(C)C1C(NC(=O)Nc2ccc(Cl)cc2)C(=O)N(c2ccccc2)N1C` (stereo not shown) [BIDI-002], the Emax at hFPR2 [1] (setting [3]) is 27 ± 2%; on hFPR2 [1] (setting [4]), 27 ± 2%; on hFPR2 [2] (setting [5]) it was 66 ± 6%; at hFPR2 [2] (setting [6]), 66 ± 6%. Moreover, the EC50 is 138 nM on hFPR2 [1] (Table 3, read-out: pEC50, Akt 1 (Thr308) phosphorylation, hFPR2-Flpln-CHO (converted)); 126 nM at hFPR2 [1] (Table 8, read-out: pEC50, Akt 1/2/3 (Thr308) phosphorylation, hFPR2-Flpln-CHO (converted)); 170 nM on hFPR2 [2] (Table 4, read-out: pEC50, inhibition to cAMP accumulation, hFPR2-Flpln-CHO (converted)); 251 nM on hFPR2 [2] (Table 8, read-out: pEC50, inhibition of cAMP accumulation, hFPR2-Flpln-CHO (converted)). In addition, the “ΔLog(τ/KA), Akt 1/2/3 (Thr308) phosphorylation, hFPR2-Flpln-CHO” value at hFPR2 [1] (Table 8) was determined as 0.0. For the same compound, at hFPR2 [1] (Table 8), the “Log(τ/KA), Akt 1/2/3 (Thr308) phosphorylation, hFPR2-Flpln-CHO” value came to 7.0 ± 0.2. Also, the “ΔLog(τ/KA), inhibition of cAMP accumulation, hFPR2-Flpln-CHO” value on hFPR2 [2] (Table 8) was determined as 0.0. Further, on hFPR2 [2] (Table 8), the “Log(τ/KA), inhibition of cAMP accumulation, hFPR2-Flpln-CHO” value worked out at 6.5 ± 0.1. Moreover, the “Effect on the cAMP response at hFPR2” value on hFPR2 [2] is reported as “caused an inhibition of the cAMP response”.
`CSCC[C@H](NC=O)C(=O)N[C@@H](CC(C)C)C(=O)N[C@@H](Cc1ccccc1)C(=O)O` [fMLP, N-formyl-Met-Leu-Phe]: the Emax on hFPR2 [1] (setting [3]) is 7 ± 2%; at hFPR2 [1] (setting [4]) it was 21 ± 2%; on hFPR2 [2] (setting [5]), 10 ± 8%; at hFPR2 [2] (setting [6]) it was 10 ± 8%. Moreover, the “ΔLog(τ/KA), Akt 1/2/3 (Thr308) phosphorylation, hFPR2-Flpln-CHO” value on hFPR2 [1] (Table 8) is listed as −2.1 ± 0.3. In addition, the “Log(τ/KA), Akt 1/2/3 (Thr308) phosphorylation, hFPR2-Flpln-CHO” value at hFPR2 [1] (Table 8) turned out to be 4.8 ± 0.1. In addition, on hFPR2 [2] (Table 8), the “ΔLog(τ/KA), inhibition of cAMP accumulation, hFPR2-Flpln-CHO” value is −1.6 ± 0.2. Also, the “Log(τ/KA), inhibition of cAMP accumulation, hFPR2-Flpln-CHO” value at hFPR2 [2] (Table 8) is on record as 4.9 ± 0.1. The “Effect on the cAMP response at hFPR2” value on hFPR2 [2] is given as “caused an inhibition of the cAMP response”.
